# Laboratory results reported in patent US9670217B2, “Process for preparing chlorins and their pharmaceutical uses” (UNIVERSIDADE DE COIMBRA, priority 2008, dated 2017).
# Read-outs that look alike come from different tables or passages of the source.
# Columns and labels:
# [1] = in toluene [12]; cited from earlier work
# [2] = cited from earlier work
# [3] = Photobleaching under 748 nm diode laser irradiation; format: physicochemical; conditions: 100 mW laser irradiation at 748 nm
# From the text: The irradiation of bacteriochlorins in the photobleaching experiments employed the 748 nm Lynx diode laser. For animal studies we employed a costumer-made Hamamatsu diode laser, type LA0873. S/N M070301, which delivered 140 mW at 748 nm. This diode laser was controlled by a ThorLabs 500 mA ACC/APC Laser Diode Controller and in-house electronics. The laser energies of this and the other higher-energy lasers employed in this work were regularly checked with an Ophir model AN/2E laser power meter.
# Photobleaching experiments were conducted in PBS. PBS:methanol (50:50) and methanol solutions. The solutions were irradiated in a cuvette with an optical path of 1 cm and the Lynx diode laser. The initial absorption of the solutions was ca. 0.8. The mechanism of photobleaching was assessed with the irradiation of the sensitizer using the Hamamatsu diode laser at 80 mW. The sensitizer was irradiated in PBS and in the presence of ascorbic acid or azide.
# The chemical stability of the compounds was studied exposing them to light, air, and pH changes. The most significant degradation occurs for aerated solutions irradiated by light of the appropriate wavelength. In such circumstances the photobleaching of the compounds follows a first-order rate and is proportional to the energy of the incident laser light. In general, it was also observed that the photobleaching rate increases with the amount of water present in the solution. Bennett reported the photoconversion of Foscan® (m-THPC) and of the analogous bacteriochlorin (m-THPB) in PBS:methanol (50:50). Scherz reported the photoconversion of Tookad® in acetone and Triton-X:PBS [3]. For the purpose of comparing the photostability of Luzitins with that of Foscan® and Tookad®, we present in Table 2 the half-lives (t1/2) of representative drugs described herein, together with those of Foscan and Tookad® normalized for a laser power of 100 mW.
# Luzitin-FMet was dissolved in PBS:methanol (2:3), transferred to a 1 cm quartz cell and its absorption spectrum was registered, FIG. 6. The quartz cell was then placed in the beam of the 748 nm Lynx diode laser, previously unfocused to have a beam diameter coincident with the window of the quartz cell. The laser power measured under these conditions was 28.8 mW. Every 5 minutes the irradiation was interrupted and a new absorption spectrum was registered. This procedure was followed for 65 minutes. The photobleaching follows the kinetics of a first-order reaction in the time window of the experiment. […] Whereas the bacteriochlorin peak at 743 nm is reduced from an absorbance of 1.128 to 0.337, the absorption of the chlorin only increases from 0.114 to 0.151. Taking into consideration the molar absorption coefficients of the compounds at these wavelengths, it is clear that whereas 70% of the bacteriochlorin is destroyed during the irradiation, only a few percent of chlorin are formed.
# The half-lives of other bacteriochlorins normalized 100 mW laser irradiation at 748 nm are presented in […], together with the literature data for the photodegradation of Foscan® and Tookad® normalized for the same light intensity. It was also observed that the half-live to Luzitin-Cl is increased by a factor of 30 when the PBS solution of the photosensitizer is saturated with Argon, which reduces the oxygen concentration in the solution.
# [4] = Triplet lifetime by laser flash photolysis; format: physicochemical; conditions: air-saturated ethanol
# Method: (§1) Absorption spectra were recorded on a Shimadzu UV-2100 spectrophotometer or with a Carry 50 Biospectrophotometer (Varian, Mulgrave, USA). Fluorescence spectra were measured with a Spex Fluorolog 3 spectrophotometer, with correction for the wavelength dependence system (RCA C31034 photomultiplier), or with a PerkinElmer LS 50 spectrofluorimeter. Transient absorption spectra were measured with an Applied Photophysics LKS 60 nanosecond laser flash photolysis kinetic spectrometer, using the third harmonic of a Spectra-Physics Quanta Ray GCR 130-01 Nd/YAG laser for excitation, a Hamamatsu 1P28 photomultiplier and a Hewlett-Packard Infinium oscilloscope (1 GS/s). Flash photolysis measurements were made in the presence of air and in argon saturated solutions. Photoacoustic calorimetry employed the same Nd/YAG laser, a home-made front-face photoacoustic cell with a 2.25 MHz Panametrics transducer (model 5676) and a Tektronix DSA 601 transient recorder. Room-temperature singlet-oxygen phosphorescence was measured at 1270 nm with a Hamamatsu R5509-42 photomultiplier, cooled to 193 K in a liquid nitrogen chamber (Products for Research model PC176TSCE005), following laser excitation of aerated solutions at 355 nm, using an adapted Applied Photophysics spectrometer. Singlet oxygen emission at 1270 nm was also monitored with a liquid nitrogen-cooled germanium detector (North Coast) coupled to a Tectronix Digitizing scope (TDS 520B), following sample excitation with 5 ns laser pulses of the third harmonic (355 nm) generated by a Q-switched Nd:YAG laser (Continuum Surelite II).
# The triplet-triplet absorption spectra and the triplet lifetimes of the photosensitisers (τT) were measured with the transient absorption spectra equipment described above, with excitation at 355 nm, where the solutions had absorbances between 0.25 and 0.30.
# The triplet-triplet absorption spectra of the Luzitins measured in this work were in good agreement with that in the literature data for chlorins and bacteriochlorins. All triplet decays were clearly mono-exponential. […] Such values are consistent with diffusion limited energy transfer from the triplet state of the sensitizer to molecular oxygen through a charge-transfer interaction.
# [5] = Singlet oxygen quantum yield and lifetime (1270 nm phosphorescence); format: physicochemical; conditions: air-saturated ethanol
# Method: as §1
# Singlet oxygen quantum yields in ethanol were obtained using a procedure described by some of us, using phenalenone as reference. The literature value for the singlet oxygen quantum yield obtained with phenalenone in ethanol is ΦΔ=0.95 [38].
# All the singlet oxygen emissions measured in aerated ethanol solutions are very well described by mono-exponential decays, with typical singlet oxygen lifetimes (τΔ). The ΦΔ values of Table 1 were obtained by the procedures described above and are representative of these photosensitisers.
# An air-saturated solution of Luzitin-Cl2Hep in ethanol with an absorbance ca. 0.2 at 355 nm was excited in a 1 cm quartz cuvette by a pulsed Nd:YAG laser, and the singlet oxygen emission was followed at 1270 nm, using the equipment and methods previously described. The intensity of the singlet oxygen phosphorescence was studied as a function of the laser intensity. A similar study was made with phenalenone in ethanol, at a concentration matching the absorbance of Luzitin-Cl2Hep at 355 nm. […] Various laser energies were employed and from the slopes of the energy dependence of singlet oxygen emission and the value of ΦΔ=0.95 for phenalenone in this ethanol, we obtained ΦΔ=0.78 for Luzitin-Cl2Hep.
# [6] = Fluorescence quantum yield; format: physicochemical; conditions: ethanol
# Method: The absorptions of both reference and sample solutions were matched at ca 0.2 at the excitation wavelength of 515.5 nm, and the solutions were diluted by a factor 10 before collecting the fluorescence. The fluorescence quantum yield was obtained from the ratio of the fluorescence bands of the sample vs the reference, multiplied by the fluorescence quantum yield of the reference, 0.012 according to [12], after correction for the difference of refractive indexes of ethanol and toluene.
# (§2) This is indicative of little aggregation between the molecules, which exist mostly as monomers at these concentrations in the solvents studied. Table 1 presents typical red and infrared molar absorption coefficients (εmax) and wavelength maxima. The same table also presents representative fluorescence quantum yields (ΦF) of Luzitins. The fluorescence quantum yields decrease of these molecules decrease in the presence of chlorine substituents, a fingerprint of the heavy atom effect expected for such molecules.
# [7] = n-octanol:water partition coefficient (shake-flask); format: physicochemical
# Method: The n-octanol:water partition coefficients (CP) were measured using a minor modification of the shake-flask method described by some of us in the literature. The modification concerned the excitation of the absorption band ca 500 nm and the collection of the fluorescence in the red/IR region.
# [8] = Absorption spectra (λmax, molar absorption coefficient); format: physicochemical; conditions: ethanol solutions
# Method: as §1, §2
# [9] = tested on: human adenocarcinoma (HT29) cell line; conditions: HT29, irradiation of 25 J/cm^2 (US2003/6,569,846); read-out: dose causing 50% death rate; cited from earlier work
# [10] = reference, in ethanol [38]; cited from earlier work
structure (smiles),measurement,setting,value
"Clc1cccc(Cl)c1-c1c2nc(c(-c3c(Cl)cccc3Cl)c3ccc([nH]3)c(-c3c(Cl)cccc3Cl)c3nc(c(-c4c(Cl)cccc4Cl)c4ccc1[nH]4)CC3)CC2 [Cl2PhB, 5,10,15,20-tetrakis(2,6-dichlorophenyl)bacteriochlorin]",fluorescence quantum yield of the reference,[1],0.012
"Oc1cccc(-c2c3nc(c(-c4cccc(O)c4)c4ccc([nH]4)c(-c4cccc(O)c4)c4nc(c(-c5cccc(O)c5)c5ccc2[nH]5)CC4)C=C3)c1 [Foscan®, 5,10,15,20-tetrakis(3-hydroxyphenyl)chlorin]",t1/2 (half-life),"[2]; PBS:methanol, literature [46] normalized for a laser power of 100 mW","8,582 sec"
"CCCCCCCNS(=O)(=O)c1ccc(Cl)c(-c2c3nc(c(-c4c(Cl)ccc(S(=O)(=O)NCCCCCCC)c4Cl)c4ccc([nH]4)c(-c4c(Cl)ccc(S(=O)(=O)NCCCCCCC)c4Cl)c4nc(c(-c5c(Cl)ccc(S(=O)(=O)NCCCCCCC)c5Cl)c5ccc2[nH]5)CC4)CC3)c1Cl [Luzitin-Cl2Hep, 5,10,15,20-tetrakis(2,6-dichloro-3-N-heptylsulfamoylphenyl)bacteriochlorin]",t1/2 (photobleaching half-life),[3]; methanol,"164,105 sec"
same,τT (air) triplet lifetime,[4],295 nsec
same,τΔ (singlet oxygen lifetime),[5],14.3 μsec
same,ΦΔ (singlet oxygen quantum yield),[5]; phenalenone as reference,0.63
same,ΦF (fluorescence quantum yield),[6],0.0082
same,log KOW (n-octanol:water partition coefficient),[7],>4
same,εmax,[8],"75,000 M^−1 cm^−1"
same,λmax,[8],746 nm
"O=S(=O)(O)c1ccc(F)c(-c2c3nc(c(-c4cc(S(=O)(=O)O)ccc4F)c4ccc([nH]4)c(-c4cc(S(=O)(=O)O)ccc4F)c4nc(c(-c5cc(S(=O)(=O)O)ccc5F)c5ccc2[nH]5)CC4)CC3)c1 [Luzitin-F, 5,10,15,20-tetrakis(2-fluoro-5-sulfonylphenyl)bacteriochlorin]",t1/2 (photobleaching half-life),[3]; PBS,58 s
"CN(C)S(=O)(=O)c1ccc(F)c(-c2c3nc(c(-c4cc(S(=O)(=O)N(C)C)ccc4F)c4ccc([nH]4)c(-c4cc(S(=O)(=O)N(C)C)ccc4F)c4nc(c(-c5cc(S(=O)(=O)N(C)C)ccc5F)c5ccc2[nH]5)CC4)CC3)c1 [Luzitin-FMet2, 5,10,15,20-tetrakis(2-fluoro-5-N,N-dimethysulfamoylphenyl)bacteriochlorin]",t1/2 (photobleaching half-life),[3]; methanol,"4,352 sec"
same,ΦF (fluorescence quantum yield),[6],0.0585
same,log KOW (n-octanol:water partition coefficient),[7],>4
same,λmax,[8],742.5 nm
same,εmax,[8]; corrected for the chlorin content,"78,000^d) M^−1 cm^−1"
CC[C@H]1c2cc3[n-]c4c(c3C)C(=O)[C@H](C(=O)OC)c4c3nc(cc4[n-]c(cc(n2)[C@@H]1C)c(C(C)=O)c4C)[C@@H](C)[C@@H]3CCC(=O)O.[Pd+2] [Tookad®],t1/2 (half-life),[2]; buffer,1.56 s
same,IC50,[9],48 µM
O=C1C=Cc2cccc3cccc1c23 [phenalenone],ΦΔ (singlet oxygen quantum yield),[10],0.95
